Holding throughout (assay type): cell-based, human
Series [1] concerns A549 lung cancer cells. The series is described as follows: MTT survival rate of A549 cells. Conditions: A549, 0~40 μM, 24 hr. How it is done: (§1) The present invention selects a human lung cancer cell, A549, for exploring lung cancer cell metastasis. For culturing A549, the A549 cells grown in 75 T flask are replanted in a 10 square-centimeter (cm^2) dish at a seeding density of 2×10^5 cells per square-centimeter (cells/cm^2) to be cultured at 37 Celsius degrees (° C.) in an incubator having 5% carbon dioxide (CO2). The culture medium used is Ham's F12 (which is recommended by Bioresources Collection and Research Center (BCRC), Taiwan, and American Type Culture Center (ATCC)) and is added with extra 10% fetal bovine serum. State-of-Use 2: Preparing Extracts of Solid-State Cultivated Antrodia cinnamomea Mycelium
At first, A549 cells are cultured as described in state-of-use 1. After being washed with tripsin, the cells are replanted for 24 hr in a dish having 24 wells at a seeding density of 2×10^5 cells/cm^2. In Table 1, Leader 1 having a concentration of 0, 5, 10, or 40 μM is cultured for 24 hr to be applied to A549, where Leader 1 having 0 μM is added with DMSO to be used as a control group. […] Then, the cell membrane and the blue-violet crystals are dissolved with DMSO to acquire light-absorbance rates with a wavelength of 570 nm for forming a statistical diagram by using sigma plot 10.0.

In series [2] the test system is A549 lung cancer cells. The series is described as follows: Wound healing of A549 cells. To be noted: A549, 5-40 μM, observed at 0, 12, 24 or 48 hr; especially 40 μM. Here is the method: as §1
At first, lung cancer cells A549 are cultured as described in state-of-use 1. After being washed down with tripsin, the cells are replanted in a 12-well plate at a seeding density of […] for 24 hr for attachment. Then, a wound line is made in each well. After floating part of the cells are removed by being slight-washed with PBS, the cells are added to culture media having concentrations of 0, 5, 10, 20 and 40 μM of Leader 1 for observation at time points of 0, 12, 24 or 48 hr to be photographed as records, where a medium dosed with 0 μM of DMSO is used as a control group.

Series [3] deals with A549 lung cancer cells. As to the kind of experiment: Transwell migration of A549 cells. To be noted: A549, 5-40 μM for 24 hr, with or without TNF-α induction, 12 or 24 hr; especially 40 μM. How it is done:
24-well transwell kits (Millipore Co.) are used for analyzing lung cancer cell migration.
At first, lung cancer cells A549 are cultured as described in state-of-use 1. After being washed down with tripsin, the cells are replanted in a 12-well plate at a seeding density of 2×10^5 cells/cm^2 for 24 hr for attachment. After being added into media having concentrations of 0, 5, 10 and 40 μM of Leader 1 for 24 hr, the cells are rinsed with PBS and, then, dropped down with tripsin. The cells are loaded into centrifuge tubes for centrifugal rotation at a speed of 1280 rpm for 3 min to remove supernatant. Residual serum is removed by slow-washing with PBS. Then, centrifugal rotations are processed at a speed of 1280 rpm for 3 min. The cells are added into culture media at a density of 2×10^5 cells/cm^2, where the media are located at an upper layer of the kit and injected with a 200 μl solution containing only 0.1% fetal bovine serum. Another media are located at a lower layer of the kit and containing 20% fetal bovine serum (induced or not induced with TNF-α). The kit having the two layers of media is put in an incubator to be observed after 12 or 24 hr.
(§2) The kit is soaked in methanol and stayed still for 20 min to be dried afterwards. Then, the kit is soaked in Gimsa to be dyed for 20 min. […]

Series [4] concerns A549 lung cancer cells. As to the kind of experiment: Matrigel transwell invasion of A549 cells. To be noted: A549, 5-40 μM for 24 hr, 12 or 24 hr, especially 40 μM. Here is the method: The 24-well kit is used for analyzing lung cancer cell invasion. The kit is prepared by injecting Matrigel (3 mg/ml-well, BD science) into the upper layer of the kit, to be placed in an incubator for 24 hr and, then, process solidification.
At first, lung cancer cells A549 are cultured as described in state-of-use 1. After being washed down with tripsin, the cells are replanted in a 6-well plate at a seeding density of 2×10^5 cells/cm^2 for 24 hr for attachment. After being added into media having concentrations of 0, 5, 10 and 40 μM of Leader 1 for 24 hr, the cells are rinsed with PBS and, then, dropped down with tripsin. The cells are loaded into centrifuge tubes for centrifugal rotation at a speed of 1280 rpm for 3 min to remove supernatant. Residual serum is slowly removed by washing with PBS. Then, centrifugal rotations are processed at a speed of 1280 rpm for 3 min. The cells are added at a density of 2×10^5 cells/cm^2 into culture media, where the media are located at the upper layer and injected with a 200 μl solution containing only 0.1% fetal bovine serum. Another media are located at the lower layer and contain 20% fetal bovine serum. The kit is put in an incubator to be observed after 12 or 24 hr.
as §2

For series [5], the system named is matrix metalloproteinase (MMP-2, MMP-9). As to the kind of experiment: Gelatin zymography of gelatinase activity in A549 cells. To be noted: A549, 5-40 μM for 24 hr; especially 40 μM. Here is the method:
Electrophoresis is used to detect hydrolytic enzymes. Gelatin zymography is used to analyze activities of gelatinases (MMP-2, MMP-9) in matrix metalloproteinase (MMP) of lung cancer cells.
(§3) At first, lung cancer cells A549 are cultured as described in state-of-use 1. After being washed down with tripsin, the cells are replanted in a 12-well plate at a seeding density of 2×10^5 cells/cm^2 for 24 hr for attachment. Then, the kit is rinsed with PBS two times. After being added into media having concentrations of 0, 5, 10 and 40 μM of Leader 1 for 24 hr, the cells are added into media having 1% fetal bovine serum for 24 hr for obtaining culture media containing the cells. The kit is put into an Eppendorf centrifuge tube for centrifugal rotation at a 1250 rpm speed for 10 min. Then, the supernatant is taken out to be stored at −20° C.
An equivalent amount of the supernatant is added into 8%-gradient colloidal wells of gel (SDS-PAGE, containing 1 mg/ml gelatin) with a 6-times MMP dye. A running buffer is added and reaction stops after 45 kD of a MMP marker is resolved into the gel with a current of 80 V and 300 mA.
(§4) The gel is taken out for reaction in a zymography renaturing buffer at a 35 rpm speed. The reaction is done for 2 times at a room temperature and it takes 30 min for each time. […]

In series [6] the test system is urokinase-type plasminogen activator (uPA). As to the kind of experiment: Casein-plasminogen zymography of uPA activity in A549 cells. To be noted: A549, 5-40 μM for 24 hr; especially 40 μM. How it is done:
Electrophoresis is used for detecting hydrolytic enzymes. The part regarding plasminogen in casein-zymography is used for analyzing activity of urokinase-type plasminogen activator (uPA) of lung cancer cells, where uPA would decompose plasminogen into plasmin.
as §3
An equivalent amount of the supernatant is added into 8%-gradient colloidal wells of gel (containing 15 μl/ml plasminogen and 1 mg/ml gelatin) with a 6-times MMP dye. A running buffer is added and reaction stops after 45 kD of a MMP marker is resolved into the gel with a current of 80 V and 300 mA.
as §4

The subject of series [7] is related proteases and proteins that promote metastasis (p-Akt, E-cadherin, MMP-2,9, TIMP-1). The series is described as follows: Western blot of metastasis-related proteases and proteins in lung cancer cells. To be noted: β-actin as control. Here is the method: After total proteins of the cell are obtained, an equivalent amount of proteins are added to 8-10% gradient electrophoresis gel wells at a current of 80 V and 300 mA for 240 min for separating the total proteins. The total proteins sorted according to their sizes are blotted on a polyvinylidene difluoride (PVDF) membrane at a condition using a 100 V current for 2 hr. Then, the PVDF membrane is reacted with a blocking buffer for 1 hr. Therein, the blocking buffer contains 10% w/v skim milk powder in a TBS-T buffer, and the TBS-T buffer contains a TBS buffer having 0.1% Tween 20.
Thereafter, the PVDF membrane is immersed in an antibody solution of actin (Cell signaling Co.); an antibody solution of p-Akt or protein kinase B (1:1000, Cell signaling Co.); an antibody solution of E-cadherin (1:1000, Cell signaling Co.); an antibody solution of MMP-2,9 in matrix metalloproteinase (1:1000, Santa Cruz Co.); and an antibody solution of TIMP-1 (1:1000, Cell signaling Co.). […]
Then, the PVDF membrane is immersed in an anti-mouse secondary antibody solution having horseradish peroxidase and an anti-rabbit secondary antibody solution for reaction at a room temperature for 1˜2 hr. […] Then, an enhanced chemiluminescene (ECL) regent is used to detect fluorescence intensity, where β-actin protein is used as a control group of expression for statistical mapping with sigma plot 10.0.
Background: Immunoblotting shows a protein as a band on a membrane.

These results are taken from patent publication US9198942B1, “Method of preparing bioactive compound from solid-state cultivated Antrodia cinnamomea mycelium for anti-metastasis against lung cancer cells” (TAIWAN LEADER BIOTECH CORP., priority 2014, dated 2015).

As for `COc1cc(C)c(OC)c(OC)c1O` [Leader 1, 2,3,6-trimethoxy-4-methylphenol], the “survival rate of lung cancer cells (cytotoxicity)” value in the series with A549 lung cancer cells [1] is recorded as “no cytotoxicity to lung cancer cells”. Besides, in the series with A549 lung cancer cells [2], the “suppressing wound healing of lung cancer cells” value is “shows its ability on suppressing wound healing of lung cancer cells”. The “suppressing migration of lung cancer cells” value in the series on A549 lung cancer cells [3] was “shows activity on suppressing migration of lung cancer cells”. In addition, the “suppressing invasion of lung cancer cells” value in the series with A549 lung cancer cells [4] was “shows ability on suppressing invasion of lung cancer cells”. In addition, in series [5], the “suppressing matrix metalloproteinase (MMP-2, MMP-9) activity of lung cancer cells” value is recorded as “shows ability on suppressing matrix metalloproteinase (MMP-2, MMP-9) activity of lung cancer cells”. In addition, in series [6], the “suppressing plasminogen activator of lung cancer cells” value was “shows activity on suppressing plasminogen activator of lung cancer cells”. Further, in series [7], the “suppressing related proteases and proteins that promote metastasis of lung cancer cells” value was “shows ability on suppressing related proteases and proteins that promote metastasis of lung cancer cells”.
